In patent US8404677B2, “Kinase inhibitors” (Genosco, priority 2009, dated 2013):
Where a name gives a salt, the structure may show the parent alone. Values belong to the compound of their own block, whether it stands above or below them.

Legend:
[1] = target: T1, human ZAP70 (Homo sapiens, UniProt P43403); assay: Inhibition of enzymatic kinase activity (LANCE Ulight); format: biochemical; conditions: at 1 μM concentration; read-out: ZAP70 percentage inhibition
T1 construct: Purified full-length human SYK, ZAP70, PIM1, PYK2; purchased Carna Biosciences
T1 sequence (P43403 1-619): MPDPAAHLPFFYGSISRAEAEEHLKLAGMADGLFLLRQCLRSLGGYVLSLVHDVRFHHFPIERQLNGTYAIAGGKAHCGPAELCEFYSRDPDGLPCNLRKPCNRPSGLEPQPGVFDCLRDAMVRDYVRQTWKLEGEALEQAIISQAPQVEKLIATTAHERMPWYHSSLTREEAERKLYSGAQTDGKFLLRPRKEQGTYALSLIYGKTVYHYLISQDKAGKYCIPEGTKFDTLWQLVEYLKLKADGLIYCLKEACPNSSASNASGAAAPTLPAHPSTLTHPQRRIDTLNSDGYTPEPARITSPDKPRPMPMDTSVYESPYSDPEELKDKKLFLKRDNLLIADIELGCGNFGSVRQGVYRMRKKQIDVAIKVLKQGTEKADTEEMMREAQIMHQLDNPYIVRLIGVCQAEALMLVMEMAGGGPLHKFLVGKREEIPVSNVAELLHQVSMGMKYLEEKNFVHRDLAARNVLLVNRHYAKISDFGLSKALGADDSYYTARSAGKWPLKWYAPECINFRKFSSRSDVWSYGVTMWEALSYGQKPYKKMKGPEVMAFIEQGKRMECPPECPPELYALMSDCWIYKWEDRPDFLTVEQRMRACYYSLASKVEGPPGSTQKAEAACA
Procedure: (§1) Inhibition of Enzymatic SYK, ZAP70, PYK2, FAK, PIM1, RET, FLT3, JAK2 and LRRK2 Kinase Activity
(§2) Compounds of the invention were initially diluted to 10 mM in 100% DMSO (CALBIOCHEM™) for storage and made into kinase buffer solution to create a compound concentration ranging from 1 uM and 10 uM. Serial dilutions of compounds of the invention were dispensed into a 96-well plate (GREINER BIOSCIENCES™) at 6 μL each. Purified full-length human SYK, ZAP70, PIM1, PYK2 and truncated human FAK, RET, FLT3, JAK2, and LRRK2 (CARNA BIOSCIENCES™) were diluted in kinase buffer and added to the compound solutions and pre-incubated for 30 minutes at room temperature (1 hour for PYK2). […] The reaction mixture was incubated for 1 hour (2 hours for PYK2). Following the incubation, the stop solution made with EDTA, water, and Lance detection buffer ([…]™) was added (12 μL each) to stop phosphorylation.

[2] = target: T2, truncated human FAK (Homo sapiens, UniProt Q05397); assay: as above; format: biochemical; conditions: for inhibition at 1 µM: at 1 μM concentration, read-out: FAK percentage inhibition; for IC50: read-out: FAK molar inhibition (IC50)
T2 construct: truncated human FAK, RET, FLT3, JAK2, and LRRK2 (CARNA BIOSCIENCES™); purchased Carna Biosciences
Procedure: as §1, §2

[3] = target: T3, human PIM1 (Homo sapiens, UniProt P11309); assay: as above; format: biochemical; conditions: at 1 μM concentration; read-out: PIM1 percentage inhibition
T3 construct: Purified full-length human SYK, ZAP70, PIM1, PYK2; purchased Carna Biosciences
Procedure: as §1
as §2, with “phosphorylation. […] Substrate phosphorylation was a function of the 665 nm emission measured following the addition of the detection solution and 50 minutes of incubation.” for “phosphorylation.”

[4] = target: SYK (Homo sapiens, UniProt P43405); assay: as above; format: biochemical; design: Purified full-length human SYK, ZAP70, PIM1, PYK2; purchased Carna Biosciences; conditions: for inhibition at 1 µM: at 1 μM concentration, read-out: SYK percentage inhibition; for IC50: read-out: SYK molar inhibition (IC50)
Procedure: as §1, §2

[5] = target: PYK2 (Homo sapiens, UniProt Q14289); assay: as above; format: biochemical; design: Purified full-length human SYK, ZAP70, PIM1, PYK2; purchased Carna Biosciences; conditions: for inhibition at 1 µM: at 1 μM concentration, read-out: PYK2 percentage inhibition; for IC50: read-out: PYK2 molar inhibition (IC50)
Procedure: as §1, §2

[6] = target: T4, truncated human JAK2 (Homo sapiens, UniProt O60674); assay: as above; format: biochemical
T4 construct: truncated human FAK, RET, FLT3, JAK2, and LRRK2 (CARNA BIOSCIENCES™); purchased Carna Biosciences
Procedure: as §1, §2

[7] = target: T5, truncated human FLT3 (Homo sapiens, UniProt P36888); assay: as above; format: biochemical
T5 construct: truncated human FAK, RET, FLT3, JAK2, and LRRK2 (CARNA BIOSCIENCES™); purchased Carna Biosciences
T5 sequence (P36888 564-993 limits assumed): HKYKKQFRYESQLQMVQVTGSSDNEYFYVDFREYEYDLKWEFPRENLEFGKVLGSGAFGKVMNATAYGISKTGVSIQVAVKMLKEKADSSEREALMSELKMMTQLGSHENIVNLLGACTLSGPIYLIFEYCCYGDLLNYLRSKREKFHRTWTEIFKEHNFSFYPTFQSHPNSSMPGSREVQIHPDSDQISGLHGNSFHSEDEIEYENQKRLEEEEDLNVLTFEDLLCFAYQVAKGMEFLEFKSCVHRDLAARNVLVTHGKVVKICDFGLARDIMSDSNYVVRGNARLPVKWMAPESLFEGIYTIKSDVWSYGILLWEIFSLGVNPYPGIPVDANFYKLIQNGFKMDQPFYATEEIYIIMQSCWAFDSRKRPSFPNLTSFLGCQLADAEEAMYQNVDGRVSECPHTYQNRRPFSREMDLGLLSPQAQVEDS
Procedure: as §1, §2

[8] = target: T6, truncated human RET (Homo sapiens, UniProt P07949); assay: as above; format: biochemical
T6 construct: truncated human FAK, RET, FLT3, JAK2, and LRRK2 (CARNA BIOSCIENCES™); purchased Carna Biosciences
T6 sequence (P07949 658-1114 limits assumed): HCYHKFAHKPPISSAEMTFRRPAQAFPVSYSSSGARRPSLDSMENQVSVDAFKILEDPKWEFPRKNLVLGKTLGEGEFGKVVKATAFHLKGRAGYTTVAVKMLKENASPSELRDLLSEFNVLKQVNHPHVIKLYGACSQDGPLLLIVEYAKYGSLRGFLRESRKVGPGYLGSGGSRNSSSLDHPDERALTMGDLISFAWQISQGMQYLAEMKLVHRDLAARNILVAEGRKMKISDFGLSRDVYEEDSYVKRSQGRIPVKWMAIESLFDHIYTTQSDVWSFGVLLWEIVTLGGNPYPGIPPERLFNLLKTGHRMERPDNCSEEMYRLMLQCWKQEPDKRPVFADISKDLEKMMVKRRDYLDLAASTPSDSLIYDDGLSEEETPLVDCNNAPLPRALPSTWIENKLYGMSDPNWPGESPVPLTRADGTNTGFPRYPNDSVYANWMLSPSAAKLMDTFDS
Procedure: as §1, §2

[9] = test system: TNF-α release in THP-1 cells, IgG stimulation; assay: SYK dependent TNF-α release assay (IgG stimulation); format: cell-based, human; conditions: for percentage inhibition of TNF-α release compared with R406: IgG stimulated release, 0.3 μM
Procedure: Compounds of the invention were tested for their TNF-α release effect on THP-1 cells. For SYK dependent TNF-α release assay (i.e., via IgG stimulation), THP-1 cells derived from human monocytic cells were obtained from the American Type Culture Collection (ATCC, Manassas, Va.). This cell line was maintained with an Roswell Park Memorial Institute (RPMI) medium (GIBCO™) containing 10 fetal bovine serum (FBS; GIBCO™) and 0.05 mM 2-mercaptoethanol. The THP-1 cells were seeded at 1×10^5 cells/100 μL/well into human IgG ([…], INVITROGEN™)-coated 96 well culture plate, and serially diluted compound was then added. After an 18-hour incubation period at 37° C., supernatants were collected for the determination of the TNF-α level by enzyme-linked immunosorbent assay (ELISA), and the remaining cells were subjected to an MTT (yellow tetrazolium salt) assay to determine the cytotoxic effects of compound.

T4 sequence (O60674 826-1132 limits assumed): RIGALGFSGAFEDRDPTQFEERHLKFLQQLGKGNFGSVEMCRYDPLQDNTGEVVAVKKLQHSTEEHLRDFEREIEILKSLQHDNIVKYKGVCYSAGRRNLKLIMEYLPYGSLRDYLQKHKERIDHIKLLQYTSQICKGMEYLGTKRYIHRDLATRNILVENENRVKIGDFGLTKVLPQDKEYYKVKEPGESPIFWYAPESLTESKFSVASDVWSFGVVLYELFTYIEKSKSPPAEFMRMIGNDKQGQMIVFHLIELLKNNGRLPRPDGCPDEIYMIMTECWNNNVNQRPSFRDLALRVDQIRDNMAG
Sequence of PYK2 (Q14289 whole entry): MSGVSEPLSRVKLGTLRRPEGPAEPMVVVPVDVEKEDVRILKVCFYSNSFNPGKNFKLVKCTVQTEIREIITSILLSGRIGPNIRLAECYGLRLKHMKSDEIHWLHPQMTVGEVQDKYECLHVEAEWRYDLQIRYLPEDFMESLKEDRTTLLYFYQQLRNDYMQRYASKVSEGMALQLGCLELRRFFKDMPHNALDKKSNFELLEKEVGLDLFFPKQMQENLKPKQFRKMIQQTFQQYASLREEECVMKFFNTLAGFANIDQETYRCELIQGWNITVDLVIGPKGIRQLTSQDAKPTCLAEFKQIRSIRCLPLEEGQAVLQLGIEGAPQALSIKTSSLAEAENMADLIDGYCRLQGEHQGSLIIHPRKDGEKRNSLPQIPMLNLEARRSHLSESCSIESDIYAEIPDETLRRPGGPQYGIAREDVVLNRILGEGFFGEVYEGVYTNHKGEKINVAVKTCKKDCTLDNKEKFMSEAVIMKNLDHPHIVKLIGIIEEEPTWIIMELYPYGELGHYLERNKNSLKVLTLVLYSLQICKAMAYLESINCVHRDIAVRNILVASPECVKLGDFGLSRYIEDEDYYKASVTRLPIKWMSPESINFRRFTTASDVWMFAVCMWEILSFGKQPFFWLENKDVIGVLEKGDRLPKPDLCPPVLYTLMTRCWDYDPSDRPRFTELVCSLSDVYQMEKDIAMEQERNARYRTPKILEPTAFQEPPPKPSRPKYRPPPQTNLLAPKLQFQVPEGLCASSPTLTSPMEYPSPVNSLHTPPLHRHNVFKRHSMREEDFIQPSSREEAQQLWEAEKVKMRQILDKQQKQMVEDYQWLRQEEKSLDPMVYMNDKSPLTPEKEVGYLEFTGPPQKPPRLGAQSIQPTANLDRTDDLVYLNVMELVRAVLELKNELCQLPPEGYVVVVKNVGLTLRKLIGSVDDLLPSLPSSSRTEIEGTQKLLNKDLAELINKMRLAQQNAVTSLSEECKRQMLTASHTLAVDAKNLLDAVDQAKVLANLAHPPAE
T2 sequence (Q05397 376-1052 limits assumed): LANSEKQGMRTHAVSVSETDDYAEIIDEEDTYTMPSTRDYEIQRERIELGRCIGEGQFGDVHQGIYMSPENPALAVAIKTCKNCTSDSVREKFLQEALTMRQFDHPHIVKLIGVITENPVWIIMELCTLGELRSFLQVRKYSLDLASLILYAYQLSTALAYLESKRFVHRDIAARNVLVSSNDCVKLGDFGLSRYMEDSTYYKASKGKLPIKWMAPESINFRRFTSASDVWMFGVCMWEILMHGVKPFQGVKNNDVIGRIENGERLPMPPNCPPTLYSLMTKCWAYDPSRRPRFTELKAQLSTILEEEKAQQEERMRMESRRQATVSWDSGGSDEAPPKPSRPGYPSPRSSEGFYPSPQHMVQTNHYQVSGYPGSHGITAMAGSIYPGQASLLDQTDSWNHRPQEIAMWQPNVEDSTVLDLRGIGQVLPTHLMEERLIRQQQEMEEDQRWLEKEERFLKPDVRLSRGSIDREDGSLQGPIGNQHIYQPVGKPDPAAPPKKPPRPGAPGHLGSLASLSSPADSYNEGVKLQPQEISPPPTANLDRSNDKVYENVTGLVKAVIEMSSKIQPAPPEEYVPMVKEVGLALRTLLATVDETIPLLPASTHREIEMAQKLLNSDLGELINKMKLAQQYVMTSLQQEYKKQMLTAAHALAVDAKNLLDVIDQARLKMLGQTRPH
T3 sequence (P11309 whole entry): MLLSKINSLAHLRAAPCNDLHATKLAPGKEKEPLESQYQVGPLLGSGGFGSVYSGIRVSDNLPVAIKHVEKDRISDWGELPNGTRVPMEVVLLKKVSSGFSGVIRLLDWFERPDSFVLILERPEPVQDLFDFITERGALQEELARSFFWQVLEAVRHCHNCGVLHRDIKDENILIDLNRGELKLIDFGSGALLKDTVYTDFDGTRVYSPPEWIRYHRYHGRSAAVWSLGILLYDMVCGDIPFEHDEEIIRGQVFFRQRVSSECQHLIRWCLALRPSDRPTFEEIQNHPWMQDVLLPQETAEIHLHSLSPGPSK

IC50 [2]: 337 nM
IC50 [4]: 2.7 nM
IC50 [5]: 84.3 nM
Compound: COc1ccc(Nc2nc(N3CCC(O)(CO)CC3)nc3cc[nH]c(=O)c23)cc1C(F)(F)F [Compound 152, 2-(4-hydroxy-4-(hydroxymethyl)piperidin-1-yl)-4-(4-methoxy-3-(trifluoromethyl)phenylamino)pyrido[4,3-d]pyrimidin-5(6H)-one]
inhibition at 0.3 µM ([9]; Homo sapiens, IgG stimulation, At 0.3 μM, THP-1, read-out: Inhibition of TNF-α Release (percentage inhibition)): 80.5%
inhibition at 1 µM ([9]; Homo sapiens, IgG stimulation, At 1 μM, THP-1, read-out: Inhibition of TNF-α Release (percentage inhibition)): 82.9%
percentage inhibition of TNF-α release compared with R406 [9]: higher percentage inhibition

inhibition at 1 µM [1]: 54.6%
inhibition at 1 µM [2]: 92.9%
inhibition at 1 µM [3]: 71.2%
inhibition at 1 µM [4]: 95.7%
inhibition at 1 µM [5]: 92.8%
Compound: NC1CCN(c2nc(Nc3cccc(Br)c3)c3c(=O)[nH]ccc3n2)CC1 [Compound 84, 2-(4-aminopiperidin-1-yl)-4-(3-bromophenylamino)pyrido[4,3-d]pyrimidin-5(6H)-one hydrochloride]

IC50 [6]: 65.3 nM
IC50 [7]: 106 nM
IC50 [8]: 115 nM
Compound: COc1ccc(Nc2nc(N3CCC(O)CC3)nc3cc[nH]c(=O)c23)cc1C(F)(F)F [Compound 150, 2-(4-hydroxypiperidin-1-yl)-4-(4-methoxy-3-(trifluoromethyl)phenylamino)pyrido[4,3d]pyrimidin-5(6H)-one]

IC50 [6]: 59.4 nM
IC50 [7]: 242 nM
IC50 [8]: 200 nM
Compound: COc1cc(Nc2nc(N3CCC(O)CC3)nc3cc[nH]c(=O)c23)cc(OC)c1 [Compound 1, 4-(3,5-dimethoxyphenylamino)-2-(4-hydroxypiperidin-1-yl)pyrido[4,3,-d]pyrimidin-6(6H)-one]

IC50 [6]: 3.7 nM
IC50 [8]: 7.3 nM
Compound: O=c1[nH]ccc2nc(N3CCC(O)CC3)nc(Nc3ccc(N4CCOCC4)cc3)c12 [Compound 134, 2-(4-hydroxypiperidin-1-yl)-4-(4-morpholinophenylamino)pyrido[4,3-d]pyrimidin-5(6H)-one]

IC50 [2]: 217 nM
IC50 [4]: 8.2 nM
IC50 [5]: 90.2 nM
Compound: COc1ccc(Nc2nc(N3CCC(CO)CC3)nc3cc[nH]c(=O)c23)cc1C(F)(F)F [Compound 151, 2-(4-(hydroxymethyl)piperidin-1-yl)-4-(4-methoxy-3-(trifluoromethyl)phenylamino)pyrido[4,3d]pyrimidin-5(6H)-one]
percentage inhibition of TNF-α release compared with R406 [9]: greater than those exhibited by R406

IC50 [6]: 151 nM
IC50 [7]: 151 nM
IC50 [8]: 32.7 nM
Compound: COc1cc(Nc2nc(N3CCC(O)CC3)nc3cc[nH]c(=O)c23)cc(OC)c1OC [Compound 149, 2-(4-hydroxypiperidin-1-yl)-4-(3,4,5-triemethoxyphenylamino)pyrido[4,3d]pyrimidin-5(6H)-one]

Further lines, the compound ahead of its results:

Compound: NC1CCC(Nc2nc(Nc3cccc(C(F)(F)F)c3)c3c(=O)[nH]ccc3n2)CC1 [Compound 9, 2-((1R,4R)-4-aminocyclohexylamino)-4-(3-(trifluoromethyl)phenylamino)pyrido[4,3-d]pyrimidin-5(6H)-one]
inhibition at 1 µM [1]: 32%
inhibition at 1 µM [2]: 83%
inhibition at 1 µM [3]: 64%
inhibition at 1 µM [4]: 84%
inhibition at 1 µM [5]: 89%

Compound: O=c1[nH]ccc2nc(N[C@H]3CCNC3)nc(Nc3ccc(Oc4ccccc4)cc3)c12 [Compound 125, (S)-4-(phenoxyphenylamino)-2-(pyrrolidin-3-ylamino)pyrido[4,3-d]pyrimidin-5(6H)-one hydrochloride]
IC50 [6]: 24.9 nM
IC50 [7]: 0.6 nM
IC50 [8]: 3.4 nM

Compound: COc1cc(Nc2nc(N3CCC(O)(CO)CC3)nc3cc[nH]c(=O)c23)cc(OC)c1 [Compound 2, 4-(3,5-dimethoxyphenylamino)-2-(4-hydroxy-4-(hydroxymethyl)piperidin-1-yl)pyrido[4,3d]pyrimidin-5(6H)-one]
IC50 [6]: 73.8 nM
IC50 [7]: 368 nM
IC50 [8]: 363 nM

Compound: N[C@@H]1CCCC[C@H]1Nc1nc(Nc2cc(C(F)(F)F)cc(C(F)(F)F)c2)c2c(=O)[nH]ccc2n1 [Compound 100, 2-((1R,2R)-2-aminocyclohexylamino)-4-(3,5-bis(trifluoromethyl)phenylamino)pyrido[4,3-d]pyrimidin-5(6H)-one]
inhibition at 1 µM [1]: 9%
inhibition at 1 µM [2]: 21.9%
inhibition at 1 µM [4]: 37.7%
inhibition at 1 µM [5]: 88.4%

Compound: COc1cc(Nc2ncc(F)c(Nc3ccc4c(n3)NC(=O)C(C)(C)O4)n2)cc(OC)c1OC [Compound R406, reference compound]
Inhibition of TNF-α Release (percentage inhibition) ([9]; IgG stimulation, At 0.3 μM, THP-1): 49.9%
Inhibition of TNF-α Release (percentage inhibition) ([9]; IgG stimulation, At 1 μM, THP-1): 87.4%
